Measured values from patent US20230330034A1, “COVALENTLY CROSS-LINKED GLYCOSYLATED MUCIN NANOPARTICLES AS SYSTEMS FOR THE DELIVERY AND RELEASE OF ACTIVE INGREDIENTS AND BIOMOLECULES” (priority 2020, published 2023).

How the values were obtained:
[1] = system: H358 lung cancer cell line; assay: Antiproliferative activity, % of cell viability; type: cell-based; conditions: Homo sapiens, NCI-H358, read-out: 1050
[2] = PAMPA, 5 h, 200 µM

Row | SMILES | IC50 [1] [nM] | Ca (t) [2] [µM] | Cd(t) [2] [µM] | Ceq [2] [µM]
1 | COc1cccc2c1C(=O)c1c(O)c3c(c(O)c1C2=O)C[C@@](O)(C(=O)CO)C[C@@H]3O[C@H]1C[C@H](N)[C@H](O)[C@H](C)O1 [doxorubicin] | 0.3 | – | – | –
2 | CC(C)NCC(O)COc1cccc2ccccc12 (centres unmarked) [propranolol] | – | 2.01 | 6.6 | 3.85
3 | CC(=O)Nc1cccc(-n2c(=O)n(C3CC3)c(=O)c3c(Nc4ccc(I)cc4F)n(C)c(=O)c(C)c32)c1 [trametinib] | 7 | – | – | –
